Results reported in the supplement of paper PMC6580486.
Structures can show the parent of a compound that is named as a salt.

How the values were obtained:
PCB-495 = test system: PCB-495 (human epithelioid sarcoma primary culture)
Method: (§1)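 60-agent targeted drug screens (Drug Screen V3 on epithelioid sarcoma cultures PCB490-3/4/5, PCB495, EPS cell lines ESX, VA-ES-BJ, FU-EPS-1 and SkMc myoblasts; PPTI screen v2.1 on human UPS PCB197 and canine UPS S1-12). 384-well plates, 72 h, CellTiter-Glo viability; IC50 by Hill curve fit. 10000 nM = no IC50 achieved (top reported value).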

PCB-490-3 = test system: PCB-490-3 (human epithelioid sarcoma primary culture)
Method: as §1

PCB-490-4 = test system: PCB-490-4 (human epithelioid sarcoma primary culture)
Method: as §1

SkMc = test system: SkMc
Method: as §1

ESX = test system: ESX
Method: as §1

PCB-490-5 = test system: PCB-490-5 (human epithelioid sarcoma primary culture)
Method: as §1

VA-ES-BJ = test system: VA-ES-BJ
Method: as §1

FU-EPS-1 = test system: FU-EPS-1
Method: as §1

Row | Structure (SMILES) | IC50 cell viability (PCB-495) [µM] | IC50 cell viability (PCB-490-3) [µM] | IC50 cell viability (PCB-490-4) [µM] | IC50 cell viability (SkMc) [µM] | IC50 cell viability (ESX) [µM] | IC50 cell viability (PCB-490-5) [µM] | IC50 cell viability (VA-ES-BJ) [µM] | IC50 cell viability (FU-EPS-1) [µM]
1 | CC(C)(C)Cn1c(N)nc2ccc(-c3[nH]c(C(C)(C)C)nc3-c3ccc(F)cc3)nc21 | > 10 | > 10 | > 10 | > 10 | 5.07 | > 10 | > 10 | > 10
2 | CC(C)n1nc(-c2ccc3oc(N)nc3c2)c2c(N)ncnc21 [INK 128] | 0.14 | 0.26 | 0.06 | 0.02 | 0.01 | 0.1 | 0.03 | > 10
3 | O=C(O)c1ccc2c(c1)nc(Nc1cccc(Cl)c1)c1ccncc12 [CX-4945] | > 10 | > 10 | 6.52 | 1.14 | > 10 | 1.2 | > 10 | 0.14
4 | CC1(C)CCC(c2ccc(Cl)cc2)=C(CN2CCN(c3ccc(C(=O)NS(=O)(=O)c4ccc(N[C@H](CCN5CCOCC5)CSc5ccccc5)c(S(=O)(=O)C(F)(F)F)c4)cc3)CC2)C1 [ABT-263] | > 10 | > 10 | > 10 | > 10 | > 10 | > 10 | > 10 | > 10
5 | Clc1ccc(NN=C(c2ccccc2)c2ccccn2)nc1 [JIB-04] | 1.14 | > 10 | 3.73 | 1.41 | 0.6 | 1.62 | 1.69 | 2.4
6 | CC(C)n1c(/C=C/C(O)CC(O)CC(=O)O)c(-c2ccc(F)cc2)c2ccccc21 (stereo not drawn) [Fluvastatin] | 0.08 | 1.32 | 4.28 | 8.73 | 2.5 | 1.32 | 0.1 | 1.48
7 | COCC1(CO)C(=O)C2CCN1CC2 (stereo not drawn) [APR-246] | > 10 | > 10 | 0.12 | > 10 | 0.13 | > 10 | > 10 | > 10
8 | Cc1cc(-c2ncc(CC(=O)Nc3ccc(-c4cnccn4)cn3)cc2C)ccn1 [LGK974] | > 10 | > 10 | > 10 | > 10 | > 10 | > 10 | > 10 | > 10
9 | CN(C)C(=N)NC(=N)N [Metformin HCL] | > 10 | > 10 | > 10 | > 10 | > 10 | > 10 | > 10 | > 10
10 | CN1CCc2c(c3ccccc3n2Cc2ccc(C(=O)NO)cc2)C1 [Tubastatin A] | > 10 | > 10 | > 10 | > 10 | > 10 | > 10 | > 10 | > 10
11 | Cc1nnc(C(C)C)n1C1C[C@H]2CC[C@@H](C1)N2CC[C@H](NC(=O)C1CCC(F)(F)CC1)c1ccccc1 (stereo in doubt) [Maraviroc] | > 10 | > 10 | > 10 | > 10 | > 10 | > 10 | > 10 | > 10
12 | CCOC(=O)CCNc1cc(N2CCc3ccccc3CC2)nc(-c2ccccn2)n1 [GSK-J4 HCl] | > 10 | > 10 | > 10 | > 10 | 1.58 | > 10 | 4.72 | > 10
13 | CC[C@H](C)n1cc(C)c2c(C(=O)NCc3c(C)cc(C)[nH]c3=O)cc(-c3ccc(N4CCNCC4)nc3)cc21 [GSK126] | > 10 | > 10 | > 10 | 0.44 | > 10 | > 10 | > 10 | > 10
14 | CCCc1c(OCCCOc2cc(O)c(-c3ccc(F)cc3)cc2CC)cccc1Oc1ccccc1C(=O)O | > 10 | > 10 | > 10 | > 10 | > 10 | > 10 | > 10 | > 10
15 | C[C@@H](Oc1cc(-c2cnn(C3CCNCC3)c2)cnc1N)c1c(Cl)ccc(F)c1Cl [Crizotinib] | 1.31 | 5.94 | 1.8 | 0.41 | 4.37 | 4.62 | 0.53 | 0.94
16 | C=C[C@@]1(C)CC(=O)[C@]2(O)[C@@]3(C)[C@@H](O)CCC(C)(C)[C@@H]3[C@H](O)[C@H](OC(C)=O)[C@@]2(C)O1 [Forskolin] | > 10 | > 10 | > 10 | > 10 | > 10 | > 10 | > 10 | > 10
